According to ChEMBL document CHEMBL1140519, “2-(2-Chloro-6-fluorophenyl)acetamides as potent thrombin inhibitors” (Bioorg Med Chem Lett, 2007):
pKi: −log10 of the molar value.

Target: Prothrombin (Homo sapiens, UniProt P00734)
Test: Inhibition of human thrombin after 15 mins by standard chromogenic assay

SMILES	pKi
NC(N)=NOCCNC(=O)Cc1c(Cl)ccc(NCC(F)(F)c2cccnc2)c1F	7.47
N=C(N)NOCCNC(=O)Cc1c(Cl)ccc(NCC(F)(F)c2cccc3cccnc23)c1F	8.57
NC(N)=NOCCNC(=O)Cc1c(Cl)ccc(NCC(F)(F)c2cccc3cnccc23)c1F	8.33
NC(N)=NOCCNC(=O)Cc1c(Cl)ccc(NCC(F)(F)c2ccccn2)c1F	8.07
Cc1nc(N)ccc1CNC(=O)Cc1c(Cl)ccc(NCC(F)(F)c2ccc(Cl)cn2)c1F	9.15
NC(N)=NOCCNC(=O)Cc1c(Cl)ccc(NCC(F)(F)c2ccc(Cl)cn2)c1F	8.74
Cc1nc(N)ccc1CNC(=O)Cc1c(Cl)ccc(NCC(F)(F)c2ccc(Cl)c[n+]2[O-])c1F	9.05

More lines, in order of rising pKi, values ahead:

pKi	SMILES
5.89	N=C(N)NOCCNC(=O)Cc1c(Cl)ccc(NS(=O)(=O)c2ccccc2)c1F
6.77	N=C(N)NOCCNC(=O)Cc1c(Cl)ccc(NCC(F)(F)c2cnc3ccccc3c2)c1F
6.85	N=C(N)NOCCNC(=O)Cc1c(Cl)ccc(NCC2(c3cccnc3)CC2)c1F
6.89	CC(C)(CNc1ccc(Cl)c(CC(=O)NCCONC(=N)N)c1F)c1cccnc1
7.24	CC(C)(CNc1ccc(Cl)c(CC(=O)NCCONC(=N)N)c1F)c1ccccn1
7.24	N=C(N)NOCCNC(=O)Cc1c(Cl)ccc(NCC2(c3ccccn3)CC2)c1F
7.99	Cc1nc(N)ccc1CNC(=O)Cc1c(Cl)ccc(NCC(F)(F)c2ccccc2)c1F
